Measurements taken from ChEMBL document CHEMBL6071152, “Design, synthesis, and biological evaluation of oridonin derivatives as novel NLRP3 inflammasome inhibitors for the treatment of acute lung injury” (Eur J Med Chem, 2024).
Active and inactive are the calls of the source. The calls are words filed in the database; no cut-off is given here.

How the values were obtained:
[1] = Cytotoxicity against ICR mouse BMDM assessed as reduction in cell viability incubated for 24 hrs by CCK8 assay; format: toxicity, cell-based; details: BMDM (bone marrow-derived macrophages)
[2] = biological target: NACHT, LRR and PYD domains-containing protein 3 (Homo sapiens, UniProt Q96P20); test: Binding affinity to NLRP3 (unknown origin) by SPR assay
Chain of NACHT, LRR and PYD domains-containing protein 3 (Q96P20 whole entry, the tested form may be a part): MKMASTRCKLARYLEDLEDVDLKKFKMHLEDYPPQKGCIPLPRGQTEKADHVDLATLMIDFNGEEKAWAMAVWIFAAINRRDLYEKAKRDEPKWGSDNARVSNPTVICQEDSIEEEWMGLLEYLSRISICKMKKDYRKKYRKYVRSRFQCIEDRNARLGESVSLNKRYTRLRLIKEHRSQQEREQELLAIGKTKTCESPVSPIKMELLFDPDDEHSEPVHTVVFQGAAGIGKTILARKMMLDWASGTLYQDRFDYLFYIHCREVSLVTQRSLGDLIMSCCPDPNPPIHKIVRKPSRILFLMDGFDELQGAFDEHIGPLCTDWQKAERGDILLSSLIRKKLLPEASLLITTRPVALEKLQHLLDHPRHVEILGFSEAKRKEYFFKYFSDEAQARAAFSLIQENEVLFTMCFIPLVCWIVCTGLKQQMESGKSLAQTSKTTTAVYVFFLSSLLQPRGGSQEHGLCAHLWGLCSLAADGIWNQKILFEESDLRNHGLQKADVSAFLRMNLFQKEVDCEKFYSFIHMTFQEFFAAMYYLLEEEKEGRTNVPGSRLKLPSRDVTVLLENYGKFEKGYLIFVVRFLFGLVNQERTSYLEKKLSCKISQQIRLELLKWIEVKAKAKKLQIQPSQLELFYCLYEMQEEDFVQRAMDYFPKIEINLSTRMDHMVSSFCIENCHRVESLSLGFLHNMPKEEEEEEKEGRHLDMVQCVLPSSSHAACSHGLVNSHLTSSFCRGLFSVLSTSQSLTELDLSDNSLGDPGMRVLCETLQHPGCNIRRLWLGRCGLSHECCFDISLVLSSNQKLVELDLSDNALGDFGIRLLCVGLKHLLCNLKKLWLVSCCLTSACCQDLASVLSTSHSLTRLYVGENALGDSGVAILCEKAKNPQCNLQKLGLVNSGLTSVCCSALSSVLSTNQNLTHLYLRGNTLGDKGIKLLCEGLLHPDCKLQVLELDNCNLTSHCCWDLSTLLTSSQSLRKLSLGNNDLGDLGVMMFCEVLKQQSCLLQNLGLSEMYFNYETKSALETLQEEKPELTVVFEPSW

[3] = biological target: NACHT, LRR and PYD domains-containing protein 3 (Mus musculus) (UniProt Q8R4B8); test: (§1) Inhibition of NLRP3 inflammasome activation in ICR mouse BMDM assessed as inhibition of LPS/ATP-stimulated caspase-1 expression in cell supernatant treated for 3 hrs with LPS followed by incubation with compound for 1 hr and later stimulated with ATP for 0.5 hrs by western blot analysis; format: cell-based; details: dose 0.2-5 µM, time 1.5 hrs
Chain of NACHT, LRR and PYD domains-containing protein 3 (Mus musculus) (Q8R4B8 whole entry, the tested form may be a part): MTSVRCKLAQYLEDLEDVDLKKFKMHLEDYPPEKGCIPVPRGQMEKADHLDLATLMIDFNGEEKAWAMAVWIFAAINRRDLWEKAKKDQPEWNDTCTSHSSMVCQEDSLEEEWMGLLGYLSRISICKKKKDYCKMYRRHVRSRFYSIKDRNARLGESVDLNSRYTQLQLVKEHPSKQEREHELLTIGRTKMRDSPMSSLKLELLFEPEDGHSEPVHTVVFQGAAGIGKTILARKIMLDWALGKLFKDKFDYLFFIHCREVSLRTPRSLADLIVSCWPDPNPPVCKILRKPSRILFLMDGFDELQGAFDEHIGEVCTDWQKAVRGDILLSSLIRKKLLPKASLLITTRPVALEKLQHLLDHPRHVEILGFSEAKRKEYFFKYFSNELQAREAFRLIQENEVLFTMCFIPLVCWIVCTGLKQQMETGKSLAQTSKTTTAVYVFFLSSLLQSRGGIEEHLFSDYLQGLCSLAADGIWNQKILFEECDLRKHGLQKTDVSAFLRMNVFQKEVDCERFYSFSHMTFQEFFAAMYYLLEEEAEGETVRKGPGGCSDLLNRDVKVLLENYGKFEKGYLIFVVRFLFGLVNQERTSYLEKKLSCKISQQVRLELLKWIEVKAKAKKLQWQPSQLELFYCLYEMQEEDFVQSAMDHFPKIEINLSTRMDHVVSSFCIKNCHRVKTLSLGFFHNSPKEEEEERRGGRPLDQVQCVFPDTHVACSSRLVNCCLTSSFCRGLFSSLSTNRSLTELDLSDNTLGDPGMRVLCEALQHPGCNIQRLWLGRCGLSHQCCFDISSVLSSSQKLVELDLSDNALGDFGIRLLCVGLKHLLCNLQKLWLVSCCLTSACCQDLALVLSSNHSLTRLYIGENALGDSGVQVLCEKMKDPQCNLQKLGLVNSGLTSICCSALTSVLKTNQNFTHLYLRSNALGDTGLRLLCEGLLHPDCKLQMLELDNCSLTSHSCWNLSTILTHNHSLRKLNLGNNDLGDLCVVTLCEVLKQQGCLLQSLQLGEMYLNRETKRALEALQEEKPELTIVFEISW

[4] = biological target: NACHT, LRR and PYD domains-containing protein 3 (Mus musculus) (UniProt Q8R4B8); test: Inhibition of NLRP3 inflammasome priming in ICR mouse BMDM assessed as inhibition of pro-caspase-1 protein expression in cell lysate at 1 uM treated for 3 hrs with LPS followed by incubation with compound for 1 hr and later stimulated with ATP for 0.5 hrs by western blot analysis; format: subcellular; details: time 1.5 hrs
[5] = biological target: NACHT, LRR and PYD domains-containing protein 3 (Mus musculus) (UniProt Q8R4B8); test: as §1, with “LPS/nigericin-stimulated” for “LPS/ATP-stimulated”, “supernatant at 1 uM” for “supernatant”, “nigericin” for “ATP”; format: cell-based; details: time 1.5 hrs
[6] = biological target: NACHT, LRR and PYD domains-containing protein 3 (Mus musculus) (UniProt Q8R4B8); test: Inhibition of NLRP3 inflammasome activation in ICR mouse BMDM assessed as inhibition of LPS/MSU-stimulated caspase-1 expression in cell supernatant at 1 uM treated for 3 hrs with LPS followed by incubation with compound for 1 hr and later stimulated with MSU for 4 hrs by western blot analysis; format: cell-based; details: time 5.0 hrs
[7] = biological target: T1, Interferon-inducible protein AIM2 (Mus musculus) (UniProt Q91VJ1); test: Inhibition of AIM2 inflammasome activation in ICR mouse BMDM assessed as inhibition of poly(dA:dT)-stimulated IL-1 beta secretion in cell supernatant at 1 uM treated for 3 hrs with LPS followed by incubation with compound for 1 hr and later cells transfected with poly(dA:dT) for 4 hrs by ELISA; format: cell-based; details: time 5.0 hrs
T1 sequence (whole entry): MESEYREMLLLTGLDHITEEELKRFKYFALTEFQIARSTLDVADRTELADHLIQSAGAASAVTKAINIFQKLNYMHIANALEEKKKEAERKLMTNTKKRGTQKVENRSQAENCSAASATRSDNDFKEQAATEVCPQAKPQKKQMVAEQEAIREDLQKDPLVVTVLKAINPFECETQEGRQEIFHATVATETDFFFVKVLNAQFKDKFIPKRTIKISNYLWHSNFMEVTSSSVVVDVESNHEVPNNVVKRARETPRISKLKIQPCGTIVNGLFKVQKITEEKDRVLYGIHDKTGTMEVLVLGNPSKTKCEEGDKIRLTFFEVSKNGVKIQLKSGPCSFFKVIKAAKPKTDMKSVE

[8] = biological target: NACHT, LRR and PYD domains-containing protein 3 (Mus musculus) (UniProt Q8R4B8); test: Inhibition of NLRP3 inflammasome priming in ICR mouse BMDM assessed as inhibition of pro-caspase-1 expression in cell supernatant at 0.2 to 5 uM pretreated with compound for 1 hr followed by stimulation with LPS for 3 hrs and later incubated with ATP for 30 mins by western blot analysis; format: cell-based; details: dose 0.2-5 µM, time 4.5 hrs
Mus musculus [9] = test: Anti-inflammatory activity against LPS-stimulated acute lung injury C57BL/6 mouse model assessed as active animal at 10 mg/kg, ip treated for 3 days and on third day administered with LPS at 30 mins post-compound challenge; format: functional, organism-based; details: time 3.0 day
Mus musculus [10] = test: Anti-inflammatory activity against LPS-stimulated acute lung injury C57BL/6 mouse model assessed as decrease in TNF-alpha level in serum at 0.1 to 1 mg/kg, ip treated for 3 days and on third day administered with LPS at 30 mins post-compound challenge and measured after 12 hrs by ELISA; format: functional, organism-based; details: dose 0.1-1 mg/kg, time 3.5 day
Mus musculus [11] = test: Anti-inflammatory activity against LPS-stimulated acute lung injury C57BL/6 mouse model assessed as decrease in alveolar dilation in right lung at 1 to 10 mg/kg, ip treated for 3 days and on third day administered with LPS at 30 mins post-compound challenge and measured after 12 hrs by Hematoxylin-Eosin staining analysis; format: functional, organism-based; details: dose 1-10 mg/kg, time 3.5 day

C=C1C(=O)[C@]23[C@H](OC(=O)Nc4ccc(F)cc4)[C@H]1CC[C@H]2[C@]12C=CCC(C)(C)[C@H]1[C@H](O)[C@@]3(O)OC2
IC50 at 24 h [1]: > 10 µM
Kd [2]: 5.17 µM
inhibition [3]: Dose-Dependent Effect
inhibition [4]: inactive
inhibition [5]: Active
inhibition [6]: Active
inhibition [7]: inactive
inhibition [8]: inactive
Activity (Mus musculus [9]): Active
Activity (Mus musculus [10]): Dose-Dependent Effect
Activity (Mus musculus [11]): Active
